How the values were obtained:
CHO cells = assay: Stable cell lines, IgG batch titer by ELISA (Example 5); type: cell-based, Chinese Hamster; conditions: 0.5 mmol/l final VPA; stable mass culture; 5 days after VPA addition
HEK293E cells = assay: Alternative transgene TNFR-Fc, batch titer by ELISA (Example 4); type: cell-based, Human; conditions: 3.8 mmol/l final VPA, day 5 after transfection
Procedure: 10 million suspension-adapted HEK293E cells were resuspended in 0.5 ml of Ex-Cell 293 HEK 293 serum-free medium with 4 mmol/l L-glutamine (Cat. No. 14571C-[…]; Lot No. 6A0093; SAFC Biosciences, Lenexa, Kans., USA, “Ex-Cell” medium; note: “Ex-Cell” medium-as used herein-refers to a medium comprising 4 mmol/l L-glutamine) in a 50-ml filter tube each (TPP AG, Trasadingen, Switzerland; Cat. No. 87050, Lot 20050174). In a separate set, 10 million suspension-adapted CHO DG44 cells were resuspended in 0.5 ml of ProCHO5 serum-free medium with 4 mmol/[…] hypoxanthine and 0.194 g/l thymidine (BioWhittaker (Lonza), Belgium; Cat. No. BE12-[…]; Lot No. 7MB0040; “ProCHO5” medium; note: “ProCHO5” medium-as used herein-refers to a medium comprising 4 mmol/[…] hypoxanthine and 0.194 g/l thymidine) in a 50-ml filter tube each (TPP AG, Trasadingen, Switzerland; Cat. No. 87050, Lot 20050174). […] In short, Goat Anti-Human IgG (Fc Fragment specific; Jackson ImmunoResearch Laboratories Inc., West Grove, Pa., USA; Code Number 109-006-098; Lot No. 72349) was used for coating the ELISA-plates, and with AP-conjugated goat anti-human gamma chain IgG (Biosource) the synthesized TNFR-Fc was detected. […] Absorption was measured at 405 nm against 490 nm using a microplate reader (SPECTRAmaxTM340; Molecular Devices, Palo Alto, Calif., USA).

For `CCCC(CCC)C(=O)O` [VPA, valproic acid], the “Batch titer CHO” value (CHO cells) was 35.5 ± 2.5 mg/L, the Batch titer (HEK293E cells) was 159.5 ± 12.0 mg/L and the “Fold increase over control” value (HEK293E cells) was 4.5 fold.

Reference: patent publication US20090023186A1, “USE OF VALPROIC ACID FOR ENHANCING PRODUCTION OF RECOMBINANT PROTEINS IN MAMMALIAN CELLS” (EXCELLGENE SA, priority 2007, published 2009)
